These results are taken from patent US8003660B2, “Modulators of muscarinic receptors” (Vertex Pharmaceuticals Incorporated, priority 2006, dated 2011).

Holding throughout (type): cell-based
The target in one assay is T1, M1 muscarinic receptor (Homo sapiens, UniProt P11229).
T1 construct: expressed in transfected cells; host or cells: CHO (M1-CHO)
T1 sequence (P11229 1-460): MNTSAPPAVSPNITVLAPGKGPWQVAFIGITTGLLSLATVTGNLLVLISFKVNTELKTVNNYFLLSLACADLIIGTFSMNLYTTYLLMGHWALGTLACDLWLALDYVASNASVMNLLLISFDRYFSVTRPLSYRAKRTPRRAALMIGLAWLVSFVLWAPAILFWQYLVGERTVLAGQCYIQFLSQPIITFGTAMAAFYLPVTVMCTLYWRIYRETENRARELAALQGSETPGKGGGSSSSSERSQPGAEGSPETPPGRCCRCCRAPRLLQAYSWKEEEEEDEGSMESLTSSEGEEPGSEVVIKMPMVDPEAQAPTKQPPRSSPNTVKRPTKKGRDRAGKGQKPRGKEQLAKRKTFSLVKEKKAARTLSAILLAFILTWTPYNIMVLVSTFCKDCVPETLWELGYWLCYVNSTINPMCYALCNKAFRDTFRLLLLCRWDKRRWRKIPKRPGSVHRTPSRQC
Description: Functional mobilization of intracellular calcium (FLIPR) in CHO cells expressing M1. The note with it: for EC50: CHO cells expressing M1, FLIPR calcium; for Emax: CHO, read-out: M1 Efficacy; for Emax / M1 Efficacy: 100% = maximum response obtained with the Carbachol control. Summed up: (§1)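 Calcium flux is read on FLIPR over 60 sec at 488/540 nm in muscarinic-receptor CHO lines. Antagonist mode adds carbachol at EC80 after 15 min compound preincubation or with simultaneous co-application. Agonist mode adds compound alone. Cells carry Fluo-3 or Calcium 3 dye in probenecid-containing pH 7.4 buffer, 0.5% DMSO final.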

The target of a further assay is T2, M2 muscarinic receptor (Homo sapiens, UniProt P08172).
T2 construct: expressed in transfected cells; host or cells: CHO (M2-CHO)
T2 sequence (P08172 1-466): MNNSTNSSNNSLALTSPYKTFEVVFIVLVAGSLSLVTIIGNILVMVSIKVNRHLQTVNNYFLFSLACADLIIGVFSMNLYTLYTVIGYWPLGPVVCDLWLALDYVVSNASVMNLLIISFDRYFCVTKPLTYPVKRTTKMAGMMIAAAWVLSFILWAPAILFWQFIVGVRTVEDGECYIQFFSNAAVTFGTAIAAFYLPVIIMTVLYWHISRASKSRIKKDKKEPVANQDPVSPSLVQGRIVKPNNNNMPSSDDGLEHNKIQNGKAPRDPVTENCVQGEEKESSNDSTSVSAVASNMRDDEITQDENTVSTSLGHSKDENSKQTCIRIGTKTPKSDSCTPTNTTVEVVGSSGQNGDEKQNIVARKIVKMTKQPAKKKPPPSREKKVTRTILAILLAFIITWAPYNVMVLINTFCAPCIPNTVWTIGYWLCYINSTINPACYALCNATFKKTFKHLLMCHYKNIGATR
Description: Functional mobilization of intracellular calcium (FLIPR) in CHO cells expressing M2. As to conditions: for EC50: CHO cells expressing M2, FLIPR calcium; for Emax: CHO, read-out: M2 Efficacy; for Emax / M2 Efficacy: 100% = maximum response obtained with the Carbachol control. Summed up:
as §1
On the technique in general: Calcium flux is commonly read through the fluorescence of an indicator in the cells.

In another assay the target is T3, M4 muscarinic receptor (Homo sapiens, UniProt P08173).
T3 construct: expressed in transfected cells; host or cells: CHO (M4-CHO)
T3 sequence (P08173 1-479): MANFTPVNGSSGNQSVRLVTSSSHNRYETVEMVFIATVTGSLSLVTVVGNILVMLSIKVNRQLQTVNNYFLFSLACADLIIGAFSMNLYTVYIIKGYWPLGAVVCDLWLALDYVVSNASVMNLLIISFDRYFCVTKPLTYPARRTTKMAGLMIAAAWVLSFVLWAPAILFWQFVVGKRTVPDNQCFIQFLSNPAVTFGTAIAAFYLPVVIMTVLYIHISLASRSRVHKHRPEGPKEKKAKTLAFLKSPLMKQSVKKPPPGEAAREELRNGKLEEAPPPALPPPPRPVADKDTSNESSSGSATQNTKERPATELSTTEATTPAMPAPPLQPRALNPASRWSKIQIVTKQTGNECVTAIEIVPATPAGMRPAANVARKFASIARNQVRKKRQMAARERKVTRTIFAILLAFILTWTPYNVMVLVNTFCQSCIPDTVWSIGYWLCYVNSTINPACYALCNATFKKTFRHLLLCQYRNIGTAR
Put plainly: Functional mobilization of intracellular calcium (FLIPR) in CHO cells expressing M4. The note with it: for EC50: CHO cells expressing M4, FLIPR calcium; for Emax: CHO, read-out: M4 Efficacy; for Emax / M4 Efficacy: 100% = maximum response obtained with the Carbachol control. Summed up:
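Recombinant CHO cells loaded with Fluo-3 AM or Calcium 3 dye in pH 7.4 buffer containing 1 mM probenecid, with 0.5% final DMSO. For agonism, compound is added directly. For inhibition, it is preincubated 15 min, or co-applied, before carbachol at EC80. FLIPR fluorescence (ex 488, em 540 nm) is recorded for 60 s.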

The next assay concerns the target T4, M3 muscarinic receptor (Homo sapiens, UniProt P20309).
T4 construct: expressed in transfected cells; host or cells: CHO (M3-CHO)
Description: Functional mobilization of intracellular calcium (FLIPR) in CHO cells expressing M3. As to conditions: for EC50: CHO cells expressing M3, FLIPR calcium; for Emax: CHO, read-out: M3 Efficacy; for Emax / M3 Efficacy: 100% = maximum response obtained with the Carbachol control. Summed up:
as §1

T4 sequence (P20309 whole entry): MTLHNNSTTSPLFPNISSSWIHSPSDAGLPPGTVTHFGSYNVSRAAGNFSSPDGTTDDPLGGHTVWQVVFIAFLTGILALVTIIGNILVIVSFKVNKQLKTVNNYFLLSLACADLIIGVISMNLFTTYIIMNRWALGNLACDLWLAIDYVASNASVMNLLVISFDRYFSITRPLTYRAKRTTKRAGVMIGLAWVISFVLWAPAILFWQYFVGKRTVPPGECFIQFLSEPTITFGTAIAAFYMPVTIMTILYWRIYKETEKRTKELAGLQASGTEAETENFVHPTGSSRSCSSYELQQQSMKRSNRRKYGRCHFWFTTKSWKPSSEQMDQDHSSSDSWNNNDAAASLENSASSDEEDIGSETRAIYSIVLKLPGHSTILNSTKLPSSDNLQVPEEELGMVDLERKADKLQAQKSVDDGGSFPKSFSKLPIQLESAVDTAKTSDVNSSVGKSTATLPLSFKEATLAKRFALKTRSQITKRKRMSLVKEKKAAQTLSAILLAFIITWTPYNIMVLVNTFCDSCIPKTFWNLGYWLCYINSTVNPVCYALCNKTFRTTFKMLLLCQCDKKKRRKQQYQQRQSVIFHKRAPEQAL

Regarding `CC(=O)N1CCCC1C(=O)N[C@H]1CCC2(CCN(CCC(C)(C)C)CC2)c2ccccc21` (some centres unmarked) [compound 60], the EC50 was below 2 µM at M1 muscarinic receptor, above 5 µM on M2 muscarinic receptor, below 2 µM on M4 muscarinic receptor and above 5 µM on M3 muscarinic receptor. Besides, the Emax at M1 muscarinic receptor is 25 to 100%; at M2 muscarinic receptor, below 25%; on M4 muscarinic receptor it was 25 to 100%; on M3 muscarinic receptor it was below 25%.

Consider `CCC(=O)N[C@@H]1CCC2(CCN(CCC(C)(C)C)CC2)c2ccccc21` [compound 62], for which the EC50 was above 5 µM at M1 muscarinic receptor, above 5 µM at M2 muscarinic receptor, below 2 µM at M4 muscarinic receptor and above 5 µM on M3 muscarinic receptor. Besides, the Emax at M1 muscarinic receptor was below 25%; on M2 muscarinic receptor, below 25%; on M4 muscarinic receptor, 25 to 100%; at M3 muscarinic receptor, below 25%.

For `CCOCC(=O)N[C@@H]1CCC2(CCN(CCC(C)(C)C)CC2)c2cc(F)ccc21` [compound 63], the concentration for a half-maximal effect (EC50) was below 2 µM on M1 muscarinic receptor, below 2 µM at M2 muscarinic receptor, below 2 µM at M4 muscarinic receptor and above 5 µM on M3 muscarinic receptor. The Emax at M1 muscarinic receptor is 25 to 100%; on M2 muscarinic receptor, below 25%; on M4 muscarinic receptor, 25 to 100%; at M3 muscarinic receptor it was below 25%.

With `CC(=O)N[C@@H]1CCC2(CCN(CCC(C)(C)C)CC2)c2ccccc21` [compound 64], the EC50 was 2 to 5 µM on M1 muscarinic receptor, above 5 µM at M2 muscarinic receptor, below 2 µM at M4 muscarinic receptor and above 5 µM on M3 muscarinic receptor. The Emax at M1 muscarinic receptor is below 25%; at M2 muscarinic receptor, below 25%; on M4 muscarinic receptor, 25 to 100%; at M3 muscarinic receptor it was below 25%.

Turning to `CC(C)(C)CCN1CCC2(CC[C@@H](NC(=O)Cc3cccnc3)c3ccc(F)cc32)CC1` [compound 65], the concentration for a half-maximal effect (EC50) on M1 muscarinic receptor is below 2 µM; on M2 muscarinic receptor it was 2 to 5 µM; on M4 muscarinic receptor, below 2 µM; on M3 muscarinic receptor, above 5 µM. In addition, the Emax on M1 muscarinic receptor is 25 to 100%; on M2 muscarinic receptor, below 25%; on M4 muscarinic receptor, 25 to 100%; at M3 muscarinic receptor, below 25%.

Turning to `CC(=O)N[C@H]1CCC2(CCN(CC(C)(C)C)CC2)c2ccccc21` [compound 66], the EC50 on M1 muscarinic receptor was below 2 µM; on M2 muscarinic receptor, above 5 µM; at M4 muscarinic receptor it was below 2 µM; at M3 muscarinic receptor it was above 5 µM. Further, the Emax on M1 muscarinic receptor is 25 to 100%; on M2 muscarinic receptor, 25 to 100%; at M4 muscarinic receptor, 25 to 100%; on M3 muscarinic receptor, below 25%.

Take `CC(C)(C)CCN1CCC2(CC[C@H](NC(=O)C3CC(=O)N3)c3ccc(F)cc32)CC1` (some centres unmarked) [compound 67]: the EC50 was below 2 µM on M1 muscarinic receptor, below 2 µM at M2 muscarinic receptor, below 2 µM on M4 muscarinic receptor and above 5 µM at M3 muscarinic receptor. Further, the Emax at M1 muscarinic receptor was 25 to 100%; on M2 muscarinic receptor, 25 to 100%; on M4 muscarinic receptor it was 25 to 100%; on M3 muscarinic receptor it was below 25%.

Turning to `CC(=O)N[C@H]1CCC2(CCN(CCC(C)CCC=C(C)C)CC2)c2ccccc21` (some centres unmarked) [compound 68], the EC50 at M1 muscarinic receptor is below 2 µM; at M2 muscarinic receptor it was below 2 µM; on M4 muscarinic receptor, below 2 µM; at M3 muscarinic receptor it was above 5 µM. The Emax on M1 muscarinic receptor is above 100%; on M2 muscarinic receptor it was 25 to 100%; on M4 muscarinic receptor, 25 to 100%; on M3 muscarinic receptor, below 25%.

As for `CCn1cc(C(=O)N[C@H]2CCC3(CCN(CCC(C)(C)C)CC3)c3ccccc32)cn1` [compound 69], on M1 muscarinic receptor, the “M1 Efficacy” value is listed as “+ (efficacy was calculated to be less than 25%)” and the EC50 is above 5 µM. Besides, at M2 muscarinic receptor, the “M2 Efficacy” value is “+ (efficacy was calculated to be less than 25%)” and the EC50 was above 5 µM. Further, on M4 muscarinic receptor, the “M4 Efficacy” value was “++ (efficacy was calculated to be from 100% to 25%)” and the EC50 is below 2 µM. For the same molecule, at M3 muscarinic receptor, the “M3 Efficacy” value is “+ (efficacy was calculated to be less than 25%)” and the EC50 is above 5 µM.

As for `CCOCC(=O)N[C@H]1CCC2(CCN(CCC(C)(C)C)CC2)c2ccccc21` [compound 70], the EC50 on M1 muscarinic receptor is below 2 µM; at M2 muscarinic receptor, below 2 µM; on M4 muscarinic receptor it was below 2 µM; at M3 muscarinic receptor, above 5 µM. Moreover, the Emax at M1 muscarinic receptor was 25 to 100%; on M2 muscarinic receptor it was below 25%; at M4 muscarinic receptor, 25 to 100%; on M3 muscarinic receptor it was below 25%.

In the case of `CC(C)(C)CCN1CCC2(CC[C@H](NC(=O)CN3CCCCCC3=O)c3ccccc32)CC1` [compound 71], the EC50 on M1 muscarinic receptor was below 2 µM; on M2 muscarinic receptor, below 2 µM; at M4 muscarinic receptor, below 2 µM; on M3 muscarinic receptor, above 5 µM. Also, the Emax is 25 to 100% on M1 muscarinic receptor, 25 to 100% on M2 muscarinic receptor, 25 to 100% on M4 muscarinic receptor and below 25% at M3 muscarinic receptor.

For `CC(=O)N1CCCC[C@H]1C(=O)N[C@@H]1CCC2(CCN(CCC(C)(C)C)CC2)c2cc(F)ccc21` [compound 72], the EC50 at M1 muscarinic receptor is 2 to 5 µM; on M2 muscarinic receptor, 2 to 5 µM; at M4 muscarinic receptor it was below 2 µM; at M3 muscarinic receptor it was above 5 µM. The Emax is 25 to 100% at M1 muscarinic receptor, below 25% at M2 muscarinic receptor, 25 to 100% at M4 muscarinic receptor and below 25% on M3 muscarinic receptor.

In the case of `CCC(CC)CN1CCC2(CC[C@H](NC(C)=O)c3ccccc32)CC1` [compound 73], the EC50 at M1 muscarinic receptor was below 2 µM; on M2 muscarinic receptor, above 5 µM; at M4 muscarinic receptor, below 2 µM; at M3 muscarinic receptor it was above 5 µM. Further, the Emax was 25 to 100% at M1 muscarinic receptor, below 25% on M2 muscarinic receptor, 25 to 100% on M4 muscarinic receptor and below 25% at M3 muscarinic receptor.

Consider `CC(C)(C)CCN1CCC2(CC[C@H](NC(=O)c3cccnc3)c3ccccc32)CC1` [compound 74], for which, at M1 muscarinic receptor, the “M1 Efficacy” value is given as “++ (efficacy was calculated to be from 100% to 25%)” and the EC50 was below 2 µM. Further, at M2 muscarinic receptor, the “M2 Efficacy” value is “++ (efficacy was calculated to be from 100% to 25%)” and the EC50 was below 2 µM. Moreover, at M4 muscarinic receptor, the “M4 Efficacy” value was “++ (efficacy was calculated to be from 100% to 25%)” and the EC50 was below 2 µM. Further, at M3 muscarinic receptor, the “M3 Efficacy” value is recorded as “+ (efficacy was calculated to be less than 25%)” and the 50% effective concentration (EC50) is above 5 µM.

Take `CC(C)(C)CCN1CCC2(CC[C@@H](NC(=O)[C@@H]3CCC(=O)N3)c3ccc(F)cc32)CC1` [compound 75]: the EC50 on M1 muscarinic receptor was 2 to 5 µM; on M2 muscarinic receptor, 2 to 5 µM; at M4 muscarinic receptor, below 2 µM; on M3 muscarinic receptor, above 5 µM. The Emax was 25 to 100% at M1 muscarinic receptor, below 25% on M2 muscarinic receptor, 25 to 100% at M4 muscarinic receptor and below 25% at M3 muscarinic receptor.

Consider `CC(C)(C)CCN1CCC2(CC[C@@H](NC(=O)CN3CCCC3=O)c3ccc(F)cc32)CC1` [compound 76], for which the EC50 at M1 muscarinic receptor was below 2 µM; on M2 muscarinic receptor it was below 2 µM; at M4 muscarinic receptor, below 2 µM; at M3 muscarinic receptor it was above 5 µM. For the same molecule, the Emax at M1 muscarinic receptor was 25 to 100%; at M2 muscarinic receptor, 25 to 100%; at M4 muscarinic receptor, 25 to 100%; on M3 muscarinic receptor, below 25%.

One may read the EC50 as the concentration needed to bring the measured effect to its halfway point.
